Laboratory results from ChEMBL document CHEMBL1145583, “2,5-Diaminopyrimidines and 3,5-disubstituted azapurines as inhibitors of glycogen synthase kinase-3 (GSK-3)” (Bioorg Med Chem Lett, 2008).
pIC50: −log10 of the molar value.

Assays:
[1] = biological target: T1, Glycogen synthase kinase-3 beta (Homo sapiens, UniProt P49841); experiment: Inhibition of GSK3-beta at 10 uM
Target sequence in this assay (P49841 whole entry, looked up): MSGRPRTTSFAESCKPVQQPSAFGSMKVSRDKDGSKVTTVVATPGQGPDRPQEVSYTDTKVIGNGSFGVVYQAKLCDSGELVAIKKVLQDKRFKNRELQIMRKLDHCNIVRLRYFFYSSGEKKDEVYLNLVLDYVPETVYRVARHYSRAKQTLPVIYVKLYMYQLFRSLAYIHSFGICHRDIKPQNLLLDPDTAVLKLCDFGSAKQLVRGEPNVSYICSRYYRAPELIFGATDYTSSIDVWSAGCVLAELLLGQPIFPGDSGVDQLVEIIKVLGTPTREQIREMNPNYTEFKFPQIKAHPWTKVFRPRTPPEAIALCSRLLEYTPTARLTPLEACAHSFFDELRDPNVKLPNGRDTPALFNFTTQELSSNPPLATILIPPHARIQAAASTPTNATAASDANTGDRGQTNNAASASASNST

[2] = biological target: T2, Glycogen synthase kinase-3 alpha (Homo sapiens, UniProt P49840); experiment: Inhibition of GSK3-alpha at 10 uM
Target sequence in this assay (P49840 2-483 limits assumed): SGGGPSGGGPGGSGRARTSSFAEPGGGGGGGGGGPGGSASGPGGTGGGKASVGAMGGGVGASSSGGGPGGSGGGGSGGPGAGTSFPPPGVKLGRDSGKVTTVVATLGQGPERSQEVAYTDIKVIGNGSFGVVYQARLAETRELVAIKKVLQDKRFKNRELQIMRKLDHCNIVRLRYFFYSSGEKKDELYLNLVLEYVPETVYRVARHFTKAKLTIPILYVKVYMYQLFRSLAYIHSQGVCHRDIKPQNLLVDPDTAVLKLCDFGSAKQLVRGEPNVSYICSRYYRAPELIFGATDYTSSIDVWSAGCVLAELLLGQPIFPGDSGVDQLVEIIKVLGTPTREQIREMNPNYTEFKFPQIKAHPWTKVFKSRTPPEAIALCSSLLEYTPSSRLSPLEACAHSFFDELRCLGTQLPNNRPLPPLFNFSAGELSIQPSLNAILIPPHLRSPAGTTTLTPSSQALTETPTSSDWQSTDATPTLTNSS

[3] = biological target: T1, Glycogen synthase kinase-3 beta; experiment: Inhibition of GSK3-beta
Target sequence in this assay (P49841 whole entry): as the sequence (P49841 whole entry, looked up) above

[4] = biological target: T2, Glycogen synthase kinase-3 alpha; experiment: Inhibition of GSK3alpha
Target sequence in this assay (P49840 whole entry): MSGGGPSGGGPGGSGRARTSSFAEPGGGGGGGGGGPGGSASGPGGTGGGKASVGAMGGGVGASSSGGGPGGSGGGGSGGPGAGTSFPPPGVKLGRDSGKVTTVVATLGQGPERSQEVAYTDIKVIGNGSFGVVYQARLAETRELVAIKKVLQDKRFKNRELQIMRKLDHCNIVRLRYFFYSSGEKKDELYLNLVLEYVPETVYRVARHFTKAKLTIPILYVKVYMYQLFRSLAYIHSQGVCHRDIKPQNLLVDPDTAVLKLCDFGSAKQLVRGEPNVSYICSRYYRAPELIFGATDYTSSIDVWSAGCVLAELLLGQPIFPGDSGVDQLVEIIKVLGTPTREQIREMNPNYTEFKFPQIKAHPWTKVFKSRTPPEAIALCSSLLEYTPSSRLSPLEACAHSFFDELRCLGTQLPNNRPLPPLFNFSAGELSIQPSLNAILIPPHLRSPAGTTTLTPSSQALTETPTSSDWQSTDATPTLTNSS

Aurora kinase A = biological target: T3, Aurora kinase A (Homo sapiens, UniProt O14965); experiment: Inhibition of Aurora A
T3 sequence (O14965 whole entry): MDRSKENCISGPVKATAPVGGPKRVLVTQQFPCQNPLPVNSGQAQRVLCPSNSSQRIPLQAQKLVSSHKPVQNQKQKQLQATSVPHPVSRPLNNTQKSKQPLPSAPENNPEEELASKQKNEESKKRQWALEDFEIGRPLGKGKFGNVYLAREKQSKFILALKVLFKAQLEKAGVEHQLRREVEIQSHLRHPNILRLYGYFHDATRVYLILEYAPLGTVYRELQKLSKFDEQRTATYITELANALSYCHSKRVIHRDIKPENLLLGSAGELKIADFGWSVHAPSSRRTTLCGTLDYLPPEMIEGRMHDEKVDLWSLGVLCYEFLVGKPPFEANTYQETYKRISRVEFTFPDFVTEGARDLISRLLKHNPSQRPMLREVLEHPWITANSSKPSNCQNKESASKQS

[5] = biological target: T4, Aurora kinase A (Homo sapiens) (UniProt O14965); experiment: Inhibition of Aurora A at 10 uM
T4 sequence (whole entry): T3 sequence (O14965 whole entry)

[6] = AUC in rat at 20 mg/kg, po; type: ADME, organism-based; design: dose 20 mg/kg, route oral; conditions: plasma
[7] = Cmax in rat at 20 mg/kg, po; type: ADME, organism-based; design: dose 20 mg/kg, route oral; conditions: in vivo
[8] = Half life in rat at 20 mg/kg, po; type: ADME, organism-based; design: dose 20 mg/kg, route oral; conditions: in vivo
[9] = Volume of distribution at steady state in rat at 5 mg/kg, iv; type: ADME, organism-based; design: dose 5 mg/kg, route intravenous; conditions: in vivo, read-out: Vdss
[10] = Oral bioavailability in rat at 20 mg/kg; type: ADME, organism-based; conditions: in vivo
[11] = Cmax in rat at 5 mg/kg, iv; type: ADME, organism-based; design: dose 5 mg/kg, route intravenous; conditions: in vivo
[12] = Clearance in rat at 5 mg/kg, iv; type: ADME, organism-based; design: dose 5 mg/kg, route intravenous; conditions: in vivo
[13] = Tmax in rat at 20 mg/kg, po; type: ADME, organism-based; design: dose 20 mg/kg, route oral; conditions: in vivo
[14] = Half life in rat at 5 mg/kg, iv; type: ADME, organism-based; design: dose 5 mg/kg, route intravenous; conditions: in vivo
[15] = AUC in rat at 5 mg/kg, iv; type: ADME, organism-based; design: dose 5 mg/kg, route intravenous; conditions: plasma

SMILES | pIC50 [3] | pIC50 [4] | other results
CCCCOC(=O)c1ccc(Nc2ncc3[nH]c(=O)n(-c4ccccc4)c3n2)cc1 |  |  | inhibition [1]: -5%; inhibition [2]: 6%
CC(C)(C)n1c(=O)n(-c2ccccc2)c2nc(Nc3ccccc3)ncc21 | 5.62 |  | inhibition [1]: 93%; inhibition [2]: 88%
Cn1c(=O)n(-c2ccccc2)c2nc(Nc3ccccc3)ncc21 | 5.77 |  | inhibition [1]: 96%; inhibition [2]: 94%
O=C(O)/C=C\c1ccc(Nc2ncc3nnn(-c4ccccc4)c3n2)cc1 | 8.15 | 7.89 | pIC50 (Aurora kinase A): 6.95
O=[N+]([O-])c1cnc(N[C@H]2CC[C@H](O)CC2)nc1Nc1ccccc1 | 6.55 | 6.76 | 
Cn1c(=O)c2cnc(Nc3ccc(C(=O)O)cc3)nc2n1-c1ccccc1 | 6.02 | 5.99 | 
CCn1c(=O)n(-c2ccccc2)c2nc(Nc3ccccc3)ncc21 | < 5.00 |  | inhibition [1]: 78%; inhibition [2]: 73%
COC(=O)COc1ccc(Nc2ncc([N+](=O)[O-])c(Nc3ccccc3)n2)cc1 |  |  | inhibition [1]: 41%
O=c1n(-c2ccccc2)c2nc(Nc3ccccc3)ncc2n1C1CCCCC1 |  |  | inhibition [1]: 14%; inhibition [2]: 16%
CC(C)n1c(=O)n(-c2ccccc2)c2nc(Nc3ccccc3)ncc21 | 5.54 |  | inhibition [1]: 71%
O=C(O)c1ccc(Nc2ncc3[nH]c(=O)n(-c4ccccc4)c3n2)cc1 | 5.40 |  | inhibition [1]: 88%; inhibition [2]: 93%
O[C@H]1CC[C@H](Nc2ncc3nnn(-c4ccccc4)c3n2)CC1 | 6.55 | 6.91 | inhibition [5]: 25%
O=C(O)COc1ccc(Nc2ncc([N+](=O)[O-])c(Nc3ccccc3)n2)cc1 | 7.04 | 7.13 | pIC50 (Aurora kinase A): 7.07
O=C(O)c1ccc(Nc2ncc(C(F)(F)F)c(Nc3ccccc3)n2)cc1 | 6.31 | 6.12 | 
O=C(O)c1ccc(Nc2ncc3nnn(C45CC6CC(CC(C6)C4)C5)c3n2)cc1 | 7.12 | 7.10 | pIC50 (Aurora kinase A): 6.04
O=C(O)c1cccc(Nc2ncc3[nH]c(=O)n(-c4ccccc4)c3n2)c1 |  |  | inhibition [1]: 3%; inhibition [2]: 1%
O=C(O)c1ccc(Nc2ncc([N+](=O)[O-])c(Nc3ccccc3)n2)cc1 | 6.82 | 6.57 | pIC50 (Aurora kinase A): 6.46
OC12CC3CC(C1)CC(n1nnc4cnc(N[C@H]5CC[C@H](O)CC5)nc41)(C3)C2 | 6.13 | 6.35 | inhibition [5]: 23%
COc1nn(-c2ccccc2)c2nc(Nc3ccc(C(=O)O)cc3)ncc12 | 6.12 | 5.72 | 
O=c1[nH]c2cnc(Nc3ccccc3)nc2n1-c1ccccc1 |  |  | inhibition [1]: 20%; inhibition [2]: -7%
OC12CC3CC(C1)CC(Nc1nc(N[C@H]4CC[C@H](O)CC4)ncc1F)(C3)C2 |  | 5.82 | 
O=C(O)c1ccc(Nc2ncc(F)c(Nc3ccccc3)n2)cc1 | 5.38 | 5.42 | 

Now from value to compound, other results behind:

pIC50 [3] | pIC50 [4] | SMILES | other results
8.52 | 8.35 | O=C(O)c1ccc(Nc2ncc([N+](=O)[O-])c(NC34CC5CC(CC(O)(C5)C3)C4)n2)cc1 | pIC50 (Aurora kinase A): 6.81
7.62 | 7.70 | O=C(O)CCc1ccc(Nc2ncc3nnn(-c4ccccc4)c3n2)cc1 | pIC50 (Aurora kinase A): 6.43
5.55 |  | O=[N+]([O-])c1cnc(Nc2ccccc2)nc1Nc1ccccc1 | inhibition [2]: 52%
7.31 | 7.49 | O=C(O)c1ccc(Nc2ncc3nnn(-c4ccccc4)c3n2)cc1 | pIC50 (Aurora kinase A): 6.53
6.98 | 7.42 | O=C(O)CCc1ccc(Nc2ncc([N+](=O)[O-])c(NC34CC5CC(CC(C5)C3)C4)n2)cc1 | 
5.46 | 5.17 | O=C1CN(c2ccccc2)c2nc(Nc3ccc(C(=O)O)cc3)ncc2N1 | 
6.20 | 6.48 | c1ccc(Nc2ncc3nnn(-c4ccccc4)c3n2)cc1 | 
7.89 | 8.05 | O=C(O)COc1ccc(Nc2ncc3nnn(-c4ccccc4)c3n2)cc1 | pIC50 (Aurora kinase A): 6.89
6.27 | 5.73 | O=C(O)c1ccc(Nc2ncc(-c3ccncc3)c(Nc3ccccc3)n2)cc1 | 
6.32 | 6.69 | COC(=O)COc1ccc(Nc2ncc3nnn(-c4ccccc4)c3n2)cc1 | 
6.74 | 6.46 | O=C(O)c1ccc(Nc2ncc3c(Cl)nn(-c4ccccc4)c3n2)cc1 | 
7.39 | 7.21 | OC12CC3CC(C1)CC(Nc1nc(N[C@H]4CC[C@H](O)CC4)ncc1C(F)(F)F)(C3)C2 | AUC [6]: 27400 ng·h/mL; Cmax [7]: 5700 ng/mL; half-life [8]: 6.1 h; Vd [9]: 0.3 L/kg; bioavailability [10]: 34%; Cmax [11]: 24200 ng/mL; inhibition [5]: 45%; clearance [12]: 4.2 mL/min/kg; Tmax [13]: 0.5 h; half-life [14]: 3.7 h; AUC [15]: 20100 ng·h/mL
5.93 | 5.55 | O=C(O)c1ccc(Nc2ncc(C3C=NN=N3)c(Nc3ccccc3)n2)cc1 (stereo not drawn) | 
7.59 | 7.47 | O=C(O)c1ccc(Nc2ncc([N+](=O)[O-])c(NC34CC5CC(CC(C5)C3)C4)n2)cc1 | 
7.64 | 7.64 | O=C1OC(Nc2ncc3nnn(-c4ccccc4)c3n2)c2ccccc21 (stereo not drawn) | pIC50 (Aurora kinase A): 5.14
6.70 | 6.91 | O=[N+]([O-])c1cnc(N[C@H]2CC[C@H](O)CC2)nc1NC12CC3CC(CC(O)(C3)C1)C2 | inhibition [5]: 33%
6.77 | 7.02 | O=C(O)COc1ccc(Nc2ncc3nnn(C45CC6CC(CC(O)(C6)C4)C5)c3n2)cc1 | 
7.29 | 7.18 | O=C(O)c1ccc(Nc2ncc3nnn(C45CC6CC(CC(O)(C6)C4)C5)c3n2)cc1 | 
6.64 | 6.88 | OC12CC3CC(C1)CC(Nc1nc(N[C@H]4CC[C@H](O)CC4)ncc1Cl)(C3)C2 | inhibition [5]: 65%
5.49 |  | O=C(O)c1ccc(Nc2ncc(Br)c(Nc3ccccc3)n2)cc1 | inhibition [2]: 82%
6.90 | 7.04 | OC12CC3CC(C1)CC(Nc1nc(N[C@H]4CC[C@H](O)CC4)ncc1Br)(C3)C2 | inhibition [5]: 69%
